Measured values published in publication PMC11462456 (Chemical Science, 2024).
pEC50: −log10 of the molar value.

Key:
A549 cells = assay: CellTiter-Glo 2D metabolic activity assay, A549; type: cell-based; conditions: Homo sapiens, 2D culture, 48 h
Protocol: (§1) 4.4 Cell viability assay on 2D cells cultures
(§2) HEK293, HCT116, A549,andSKOV-3 cells were seeded in 96-well tissue culture plates at a density of 2000-3000 cells per well in 100 µl of growth medium and incubated overnight at 37 °C with 5% CO2. The following day, the cells were treated with various concentrations of compounds or 0.05% DMSO for 48 h. After treatment, add 100 μl of Cell Titer-Glo® 2.0 Reagent (cat. no. G9243, Promega) in each well, then the 96-well plates were put on an orbital shaker for 10 min and then allow the plate to incubate at room temperature for 10-20min to stabilize the luminescent signal. Luminescence readout (Gen5 Data Analysis Software v3.08.01) was performed to record luminescence.
(§3) (1 picture or pasted object on this page, not shown here)

HCT116 cells = assay: CellTiter-Glo 2D metabolic activity assay, HCT116; type: cell-based; conditions: Homo sapiens, HCT-116, 2D culture, 48 h
Protocol: as §1, §2, §3

A549 spheroids = assay: CellTiter-Glo 3D assay on spheroids; type: cell-based; conditions: Homo sapiens, 72 h, read-out: EC50, spheroid metabolic activity
Protocol: 4.5 Cell viability assay on 3D cell cultures
The single cell suspension containing 2.5 ×10^4 cells/ml of A549 or 2 ×10^4 cells/ml of HCT116 were seeded into the U-shaped, 384-well ULA plates (cat. no. MS-9384UZ, S-bio), each well containing 80 μl single cell suspension. The 384-well ULA plates were sealed with Breath-Easy semipermeable tape (cat. no. BEM-1, Diversified Biotech) to prevent evaporation. The spheroids were put into incubator and then cultured at 37 °C and 10% CO2. After 48h of spheroids formation, the spheroids were treated with various concentrations of compounds or 0.05% DMSO. After 72h treatment, each spheroid in the culture medium was pipetted into white micro-96-well plates (cat. no. 236108, ThermoFisher) and an equal volume of Cell Titer-Glo 3D (cat. no. G9683, Promega) reagent was added. Luminescence readouts were the same as described above for 2D culture.

[1] = Body weight change in A549 xenograft mice; type: in vivo, mouse; conditions: i.p.
Protocol: 4.7 Therapeutic anti-tumor evaluation
Animal experiments were carried out in accordance with the regulatory guidelines of the Ethics Committee of the Ghent University Hospital. 30 female Swiss Nude Immunodeficient mice (Crl:NU(Ico)-Foxn1nu) of 5 weeks-6 weeks old (Charles River) were subcutaneously injected with […] A549 (1:1 serum free DMEM medium: Matrigel (Corning)). 10 days post inoculation ,mice were randomized into five groups (6 mice/group) with equal average tumor volume and treatment was started: (1) the control group: Vehicle(20% PEG400 and 5% […]
2J2V group (0.1 mg/kg), (5) the 2J2V group(0.5 mg/kg).Mice were treated on Day 0, Day 2, Day 4, Day 11, Day 18 by intraperitoneal injection. Tumor growth was monitored every 3 days by caliper, and the tumor volume was calculated as 1/2 × length × width2. Body weight was monitored every 3 days by weighing scale. […]
The reduced […]
proteins were alkylated with 40 mM iodoacetamide (IAA) in the dark for 30 minutes. Then samples were acidified with 1.2% aqueous phosphoric acid and mixed with 6× volumes of 90% methanol, 100 mM TEAB, pH 7.1 (S-Trap binding buffer). The samples were loaded onto the (1 picture or pasted object on this page, not shown here)

Row | SMILES | pEC50 (A549 cells) | pEC50 (HCT116 cells) | pEC50 (A549 spheroids) | body weight change ([1]; 0.1 mg kg−1) | body weight change ([1]; 0.5 mg kg−1)
1 | Cc1ncsc1-c1ccc(CNC(=O)C2CC(O)CN2C(=O)C(NC(=O)COCCOCCOCCNC(=O)CC2N=C(c3ccc(Cl)cc3)c3c(sc(C)c3C)-n3c(C)nnc32)C(C)(C)C)cc1 (centres unmarked) [MZ1, reference compound] | 6.40 | 7.00 | 7.10 |  | 
2 | Cc1ncsc1-c1ccc(C(C)NC(=O)C2CC(O)CN2C(=O)C(NC(=O)COCCOCCNC(=O)CC(NC(=O)CCc2cn(CCOCCOCCOCCOCC(=O)NC(CC(=O)NCCOCCOCCNC(=O)CC3N=C(c4ccc(Cl)cc4)c4c(sc(C)c4C)-n4c(C)nnc43)C(=O)NCCOCCOCCNC(=O)CC3N=C(c4ccc(Cl)cc4)c4c(sc(C)c4C)-n4c(C)nnc43)nn2)C(=O)NCCOCCOCC(=O)NC(C(=O)N2CC(O)CC2C(=O)NC(C)c2ccc(-c3scnc3C)cc2)C(C)(C)C)C(C)(C)C)cc1 (centres unmarked) [2J2V] |  |  |  | no detectable decrease in body weight | slight body weight decrease
